According to paper PMC13427755 (Nature Communications, 2026):
Where a SMILES comes first, the peptide text is derived from it.

Tests used:
[1] = protocol, section 1.1.1.1; cited from earlier work
Source text: […]. "Antifibrotic therapy for idiopathic pulmonary fibrosis: time to treat." Respiratory research 20.1 (2019) ...

[2] = test system: thymic stromal lymphopoietin (TSLP); assay: TSLP ELISA in deep bronchial brushings (DBB); format: in vivo, human; details: for TSLP in DBB, Δ from baseline, median (IQR): Day 14 minus screening
Source text: (§1) Bronchoscopists were instructed to obtain a total of 6 brushings from 3 of the basilar bronchial segments of the right lower lobe: the anterior basilar segment, the lateral basilar segment, and the posterior basilar segment. With the bronchoscope proximal to or within the orifice of the appropriate basilar segment, the brush sheath was to be passed out 5 cm beyond the subsegment orifice, and then the brush was fully extended an additional 1 cm for a total of 6 cm beyond the orifice of the subsegmental bronchus. At the desired depth, the sheath was to be gently pulled back and forward for 15 strokes to brush the small airways. The brushing process was repeated using any combination of the 3 basilar segments described above, at the discretion of the bronchoscopist, for a total of 6 six separate brush samples.
(§2) Protein isolation and preparation of DBB samples for ELISAs were performed as previously described[47] according to manufacturer’s instructions for COL1A1 (#ab210966, abcam), CXCL7 (#LS-F4967-1, LS Bio), GAL7 (#DY1339, R&D Systems), IL-11 (#DY218, R&D Systems), and TSLP (#DY1398, R&D Systems).
(§3) Descriptive statistics are reported as medians with interquartile ranges (IQR). The Hodges-Lehmann estimator was used for the median difference between groups (treatment minus placebo), with approximate 90% confidence intervals (asymmetric, exact level varied slightly with small n). Cliff’s delta was calculated as effect size using the formula δ = (2U / (n1 × n2)) − 1, with thresholds: |δ | <0.3 small effect, 0.3–0.5 medium effect, >0.5 large effect. […] No adjustment for multiplicity was performed, as these were pre-specified, hypothesis-driven exploratory analyses. All biomarker statistical analyses were conducted using GraphPad Prism Version v10.0.

[3] = test system: surfactant protein D (SP-D); assay: SP-D in plasma, MSD-ECL assay; format: in vivo, human; details: for SP-D in plasma, Δ from baseline, median (IQR): Day 14 minus screening, N = 8; for SP-D in plasma, median difference vs placebo (Hodges-Lehmann): N = 8 vs pooled placebo N = 5
Description: Blood samples for biomarker assessments in PBMCs and platelet-rich plasma were collected prior to the initial dose and on day 14 following the last dose. Following optimization for detection of analytes in IPF matrices, meso-scale discovery electrochemiluminescence (MSD-ECL) assays were performed at BioAgylitix for SP-D (#K1519XR-2, MSD) in plasma and AKT/pAKT (#K15100D-1, MSD) in PBMCs according to manufacturer’s instructions.
as §3

[4] = test system: collagen type 1 alpha chain 1 (COL1A1); assay: COL1A1 ELISA in deep bronchial brushings (DBB); format: in vivo, human; details: for COL1A1 in DBB, Δ from baseline, median (IQR): Day 14 minus screening
Source text: as §1, §2, §3

[5] = test system: participants with IPF; design: species or system human; details: in vivo
Description: Safety and tolerability assessments were performed through treatment and follow-up and included evaluation of TEAEs, concomitant medications, physical examinations, vital signs, 12-lead ECGs, clinical laboratory assessments, spirometry, and cough symptoms using the validated LCQ[22] and a cough VAS. Spirometry was performed according to American Thoracic Society (ATS) / European Respiratory Society (ERS) Task Force guidelines[46] at all clinic visits, with assessments conducted both pre-and post-dose on study drug dosing days. Study staff monitored participants’ self-administration of the study drug (the morning dose) during on-site visits, and symptoms were monitored for at least 1h. […]
Exploratory biomarkers will be assessed in peripheral blood cells (as feasible), platelet rich plasma, BALF, BA samples, and deep bronchial brushings as outlined in Table 3. […]
LCQ total score is equal to the sum of the domain scores (total score range from 3 to 21) with a lower score indicating greater impairment of health status due to cough . […] If a response is not provided to a question, the domain score will be calculated as the average of the scores to the answered questions within the domain. If a subject responds to less than 80% of questions in a domain, the LCQ domain score will not be calculated and will be treated as missing during analysis. […]

## CC(C)[C@H](NC(=O)[C@@H](NC(=O)[C@H](Cc1ccccc1)NC(=O)[C@@H](NC(=O)[C@@H](NC(=O)[C@@H](N)Cc1ccccc1)[C@@H](C)O)[C@@H](C)O)[C@@H](C)O)C(=O)N[C@H](C(=O)O)[C@@H](C)O [LTI-03] (H-FTTFTVT-OH; N-terminus and C-terminus assumed)
[1]
  solubility in water: limited solubility
[2]; 5 mg/day, N = 7
  TSLP in DBB, Δ from baseline, median (IQR): −2.106 pg/mg protein
[2]; 5 mg/day, N = 7 vs pooled placebo N = 6, one-tailed Mann-Whitney p = 0.0256
  TSLP in DBB, median difference vs placebo (Hodges-Lehmann): −19.66 pg/mg protein
[2]; 10 mg/day, N = 9
  TSLP in DBB, Δ from baseline, median (IQR): −2.09 pg/mg protein
[2]; 10 mg/day, N = 9 vs pooled placebo N = 6, one-tailed Mann-Whitney p = 0.0128
  TSLP in DBB, median difference vs placebo (Hodges-Lehmann): −19.07 pg/mg protein
[3]; 5 mg/day
  SP-D in plasma, Δ from baseline, median (IQR): 3290 pg/mL
[3]; 5 mg/day, one-tailed Mann-Whitney p = 0.3108
  SP-D in plasma, median difference vs placebo (Hodges-Lehmann): 3428 pg/mL
[3]; 10 mg/day
  SP-D in plasma, Δ from baseline, median (IQR): -3264 pg/mL
[3]; 10 mg/day, one-tailed Mann-Whitney p = 0.1111
  SP-D in plasma, median difference vs placebo (Hodges-Lehmann): -8368 pg/mL
[3]; 10 mg/day, baseline to Day 14, p = 0.1111, not statistically significant
  decrease of plasma SP-D compared to placebo: 5%
[4]; 5 mg/day, N = 8
  COL1A1 in DBB, Δ from baseline, median (IQR): 0.16 pg/mg protein
[4]; 5 mg/day, N = 8 vs pooled placebo N = 6, one-tailed Mann-Whitney p = 0.0709
  COL1A1 in DBB, median difference vs placebo (Hodges-Lehmann): −3.486 pg/mg protein
[4]; 10 mg/day, N = 9
  COL1A1 in DBB, Δ from baseline, median (IQR): −11.9 pg/mg protein
[4]; 10 mg/day, N = 9 vs pooled placebo N = 6, one-tailed Mann-Whitney p = 0.0248
  COL1A1 in DBB, median difference vs placebo (Hodges-Lehmann): −20.95 pg/mg protein
[5]
  change in LCQ total score during the treatment period: No clinically significant changes
  change in cough VAS during the treatment period: No clinically significant changes
